One data set deals with humans. The note with it: human studies, infusion, over 24 hours; cited from earlier work.
Another data set concerns Male ZDF rats. Description: Oral glucose tolerance test (oGTT) in male ZDF rats. The data set is classed as in vivo. The following applies: for % Inhibition of Glucose Excursion: AUC relative to vehicle control, ZDF rats. As for the experimental part:
Male ZDF rats were fasted for 18 h and randomly grouped (n=6) to receive the GPR119 agonist Compound 1(3 or 10 mg/kg), the control compound, Januvia (3 mg/kg), or a combination of Compound 1(3 mg/kg) and Januvia (3 mg/kg). The compounds were delivered orally via a gavage needle (p.o., volume 4 mL/kg) 60 min prior to glucose bolus (3 g/kg) (time=−60 min in FIG. 4), with a separate group receiving vehicle (20% hydroxypropyl-beta-cyclodextrin (HPCD)) as control. At time 0 min, a glucose bolus was administered. Levels of blood glucose were assessed using a glucometer (One-Touch Ultra™, LifeScan) at time −60 min (prior to compound administration), at 0 min (at time when glucose bolus was given), and at 30, 60, 90, and 120 min post glucose bolus. The plasma glucose excursion curve (FIG. 4) is shown.

A further data set deals with T1, GPR119 receptor (Homo sapiens, UniProt Q8TDV5).
T1 construct: expressed in transfected cells
T1 sequence (Q8TDV5 2-335): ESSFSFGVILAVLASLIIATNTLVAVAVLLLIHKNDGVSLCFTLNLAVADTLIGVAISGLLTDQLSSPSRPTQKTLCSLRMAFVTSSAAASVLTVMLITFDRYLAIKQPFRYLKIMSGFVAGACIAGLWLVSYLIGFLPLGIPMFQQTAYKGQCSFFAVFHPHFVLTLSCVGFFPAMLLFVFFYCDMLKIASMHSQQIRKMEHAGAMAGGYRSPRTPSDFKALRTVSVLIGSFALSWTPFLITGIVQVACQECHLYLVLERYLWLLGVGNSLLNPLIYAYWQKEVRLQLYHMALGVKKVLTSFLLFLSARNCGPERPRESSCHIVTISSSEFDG
Description: HTRF cAMP detection assay in CHO-K1 cells stably expressing the GPR119 receptor. The data set is classed as cell-based. As for the experimental part:
GPR119 agonist, Compound 1, was evaluated in an HTRF® cAMP detection assay (Cisbio, cAMP Dynamic 2 Assay Kit; #62AM4PEJ) according to the manufacturer's instructions using CHO-K1 cells stably expressing the GPR119 receptor. CHO-K1 cells were transduced with a lentiviral vector encoding the nucleotide sequence of GPR119 (NCBI mRNA and protein reference sequences: NM_178471.2 & NP_848566). The N-terminus of the GPR119 nucleotide sequence was modified to replace the first, methionine-coding, codon with a nucleotide sequence coding for a standard, nine amino acid, hemagglutinin tag. Following transduction, cells expressing the GPR119 receptor were isolated and a single clone was isolated following standard dilution-cloning procedures. On the day of the assay, cultured CHO-GPR119 cells were harvested, suspended in assay buffer and plated into 384-well assay plates (PerkinElmer® Proxiplate® #6008280) at a density of 2,000 cells per well. A cAMP standard curve was added to each plate. Compound 1 was dissolved in DMSO, serially diluted in DMSO and then diluted in assay buffer before addition to the cells. Compound 1 was evaluated in triplicate, using 10-point, 5-fold serial dilutions starting at 10 μM. […] Plates were then incubated at room temperature for 1 h prior to reading. Time-resolved fluorescence measurements were collected on PerkinElmer Envision™ or BMG Pherastar™ microplate readers. […]
For orientation: In TR-FRET formats the signal depends on donor and acceptor labels being close together.

The nature of the next data set: Solubility of Compound 1. The data set is classed as physicochemical. As for the experimental part:
To a solution of 5-fluoro-4-(2-methyl-6-(methylsulfonyl)pyridin-3-yloxy)-6-(piperidin-4-yloxy)pyrimidine hydrochloride (200 mg, 0.477 mmol) and 2,5-dioxopyrrolidin-1-yl 1-methylcyclopropyl carbonate (247 mg, 1.16 mmol) in DCM (3.5 mL) was added triethylamine (0.333 mL, 2.387 mmol). The reaction mixture was stirred at room temperature for 2 h. The mixture was concentrated under reduced pressure and the residue was purified by silica gel flash column chromatography to give the title compound as a white solid (183 mg, 80% yield). Exact mass calculated for C21H25FN4O6S: 480.15. found: LCMS m/z=481.2 [M+H]^+; ^1H NMR (400 MHz, CDCl3) δ ppm 0.63-0.66 (m, 2H), 0.87-0.90 (m, 2H), 1.56 (s, 3H), 1.82-1.84 (m, 2H), 2.02-2.04 (m, 2H), 2.55 (s, 3H), 3.35 (s, 3H), 3.28-3.37 (m, 2H), 3.78-3.79 (m, 2H), 5.36-5.40 (m, 1H), 7.68 (d, J=12 Hz, 1H), 8.01 (d, J=8 Hz, 1H), 8.07 (s, 1H). Solubility: <0.001 mg/mL (H2O); 2.758 mg/mL (20% HPCD).

A further data set concerns Male SD rats. Put plainly: Gastric emptying in male SD rats (stomach content 6 h post-dosing). The data set is classed as in vivo. The note with it: SD rats, 3, 10 or 30 mg/kg orally. The protocol: Male SD rats were fasted for 18 h and randomly grouped (n=5). Fasted rats were allowed to access food for 30 min, and the amount of food consumed was recorded for each rat. At the end of the 30 min food intake, rats were put in cages without food and water, and dosed with Compound 1 at 3, 10, or 30 mg/kg, or vehicle control (20% HPCD) orally, or with exendin-4 (Ex-4) at 100 μg/kg i.p. Six hours post-dosing, rats were euthanized with CO2, and stomach content was determined.

Data set [1] concerns Male 129SVE mice. Description: GIP release in male 129SVE mice (plasma total GIP, ELISA). The following applies: 3 or 30 mg/kg p.o., 45 min. The data set is classed as in vivo. The protocol:
Male 129SVE mice (approximately 8 weeks old) were fasted for 18 h and randomly grouped (n=6) to receive a GPR119 agonist (Compound 1) at 3 or 30 mg/kg body weight. Compound 1 was delivered orally via a gavage needle (4 mL/kg), and after 45 min, a blood sample was collected to determine plasma total GIP levels. A separate control group received vehicle (PET (80% PEG:10% Ethanol:10% Tween80™)). Plasma GIP levels were determined using a GIP (total) ELISA kit from Millipore.
A general note: An ELISA detects its analyte on a solid surface through an enzyme-linked reagent.

Data set [2] relates to Male 129SVE mice. Description: Oral glucose tolerance test (oGTT) in male 129SVE mice. The data set is classed as in vivo. The note with it: for Plasma Glucose, Mean: n=6. As for the experimental part: Male 129SVE mice (approximately 8 weeks old) were fasted for 18 h and randomly grouped (n=6) to receive a GPR119 agonist (Compound 1) at 3, or 10 mg/kg body weight. Compound 1 was delivered orally via a gavage needle (p.o., volume at 4 mL/kg) 30 minutes prior to glucose bolus (3 g/kg) (time=−30 min in FIG. 1), with a separate group receiving vehicle (20% hydroxypropyl-beta-cyclodextrin (HPCD) as a control. At time 0 min the glucose bolus was administered. Levels of blood glucose were assessed using a glucometer (One-Touch Ultra™, LifeScan) at time −30 min (prior to compound administration), at 0 min (when the glucose bolus was given), and at 20, 40, 60, 120 min post glucose bolus. The plasma glucose level (Table A) and glucose excursion curve (FIG. 1) are shown. Glucose excursion reduction (area under the curve (AUC)) in compound-treated animals relative to vehicle control is shown in FIG. 2.

Setting [3] is: 3 mg/kg p.o. 60 min prior to glucose bolus (3 g/kg).

Converted amounts (≈) assume the structure as drawn. “Also recorded” adds a separate entry of the source. Structures can show the parent of a compound that is named as a salt. Where only a bound is given, the exact number is not on record here.

With “PYY3-36: form of Peptide YY generated from PYY1-36 by cleavage of the N-terminal Tyr and Pro residues by DPP-IV”, the “Reduction of food intake” value in the data set on humans was 33%.

Consider `Cc1nc(S(C)(=O)=O)ccc1Oc1ncnc(OC2CCN(C(=O)OC3(C)CC3)CC2)c1F` [Compound 1, 1-methylcyclopropyl 4-(5-fluoro-6-(2-methyl-6-(methylsulfonyl)pyridin-3-yloxy)pyrimidin-4-yloxy)piperidine-1-carboxylate], for which the “% Inhibition of Glucose Excursion” value was determined as 14.8% in the data set with Male ZDF rats (setting [3]) and 26.2% with Male ZDF rats (10 mg/kg p.o. 60 min prior to glucose bolus (3 g/kg)). In the data set with Male ZDF rats (diabetic ZDF rats, 3 or 10 mg/kg p.o.), the “Effect on blood glucose after a challenge with glucose (in words)” value is “lowered blood glucose”. Besides, the “Agonist activity at GPR119 (in words)” value at GPR119 receptor is “potent and selective agonist; also recorded: full agonist”. Moreover, at GPR119 receptor (CHO-K1 cells stably expressing GPR119, 1 h incubation), it took 14.9 nM to reach a half-maximal effect (EC50). The solubility in “Solubility of Compound 1” (20% HPCD, aqueous with cosolvent or surfactant or cyclodextrin) is 2760 µg/mL (≈ 5.74 mM); in “Solubility of Compound 1” (water, H2O), below 1 µg/mL. Also, the “Effect on gastric emptying (in words)” value with Male SD rats was “had an effect on gastric emptying at high dosage (30 mg/kg), but that effect was less pronounced than the positive control, Ex-4”. The “Release of GIP (plasma total GIP, in words)” value in the data set with Male 129SVE mice [1] is “stimulates the release of GIP”. The “Plasma Glucose, Mean” value was 92.0 mg/dL with Male 129SVE mice [2] (3 mg/kg p.o., 0 min relative to glucose bolus); 207.0 mg/dL in the data set on Male 129SVE mice [2] (3 mg/kg p.o., 20 min post glucose bolus (3 g/kg)); 280.6667 mg/dL in the data set on Male 129SVE mice [2] (3 mg/kg p.o., 40 min post glucose bolus (3 g/kg)); 248.8333 mg/dL in the data set with Male 129SVE mice [2] (3 mg/kg p.o., 60 min post glucose bolus (3 g/kg)); 161.8333 mg/dL in the data set with Male 129SVE mice [2] (3 mg/kg p.o., 120 min post glucose bolus (3 g/kg)); 75.17 mg/dL in the data set with Male 129SVE mice [2] (3 mg/kg p.o., -30 min relative to glucose bolus (prior to compound administration)). The “Plasma Glucose, Mean” value in the data set with Male 129SVE mice [2] (10 mg/kg p.o., 0 min relative to glucose bolus) stood at 94.5 mg/dL; with Male 129SVE mice [2] (10 mg/kg p.o., 20 min post glucose bolus (3 g/kg)), 190.3333 mg/dL; with Male 129SVE mice [2] (10 mg/kg p.o., 40 min post glucose bolus (3 g/kg)), 229.6667 mg/dL; with Male 129SVE mice [2] (10 mg/kg p.o., 60 min post glucose bolus (3 g/kg)), 199.6667 mg/dL; in the data set with Male 129SVE mice [2] (10 mg/kg p.o., 120 min post glucose bolus (3 g/kg)) it was 150.6667 mg/dL; with Male 129SVE mice [2] (10 mg/kg p.o., -30 min relative to glucose bolus (prior to compound administration)) it was 71.5 mg/dL. Also, the “Effect on blood glucose after challenge with glucose (in words)” value with Male 129SVE mice [2] (male 129SVE mice, 3 or 10 mg/kg p.o.) is listed as “lowered blood glucose”. Besides, the “Effect on plasma glucose levels in oGTT (in words)” value in the data set with Male 129SVE mice [2] (male 129SVE mice, dose of 10 mg/kg) was “significantly reduced plasma glucose levels”.

`N[C@@H](CC(=O)N1CCn2c(nnc2C(F)(F)F)C1)Cc1cc(F)c(F)cc1F` [Januvia, dihydrogenphosphate salt of 3(R)-amino-1-[3-(trifluoromethyl)-5,6,7,8-tetrahydro[1,2,4]triazolo[4,3-a]pyrazin-7-yl]-4-(2,4,5-trifluorophenyl)butan-1-one, reference compound]: in the data set with Male ZDF rats (setting [3]), the “% Inhibition of Glucose Excursion” value amounted to 57.0%.

For orientation: EC50 means the concentration needed to bring the measured effect to its halfway point. Lower therefore signals a more potent agent. As usually defined, the solubility is how much of the substance goes into solution per volume. High values mean much dissolved substance, low ones little dissolved substance.
